Drawing on ChEMBL document CHEMBL3875166, “Synthesis and biological evaluation of new 6-hydroxypyridazinone benzisoxazoles: Potential multi-receptor-targeting atypical antipsychotics” (Eur J Med Chem, 2016), this text covers Ki for 37 molecules.

The target of assay [1] is 5-hydroxytryptamine receptor 2A (Rattus norvegicus, UniProt P14842). Nature of the assay: Displacement of [3H] ketanserin from 5-HT2A receptor in Sprague-Dawley rat cerebral cortex incubated for 30 mins by liquid scintillation counting analysis. For orientation: Displacement assays read how much labelled ligand stays bound in the presence of the test substance.
Assay [2] deals with T1, 5-hydroxytryptamine receptor 1A (Rattus norvegicus, UniProt P19327).
T1 sequence (P19327 whole entry): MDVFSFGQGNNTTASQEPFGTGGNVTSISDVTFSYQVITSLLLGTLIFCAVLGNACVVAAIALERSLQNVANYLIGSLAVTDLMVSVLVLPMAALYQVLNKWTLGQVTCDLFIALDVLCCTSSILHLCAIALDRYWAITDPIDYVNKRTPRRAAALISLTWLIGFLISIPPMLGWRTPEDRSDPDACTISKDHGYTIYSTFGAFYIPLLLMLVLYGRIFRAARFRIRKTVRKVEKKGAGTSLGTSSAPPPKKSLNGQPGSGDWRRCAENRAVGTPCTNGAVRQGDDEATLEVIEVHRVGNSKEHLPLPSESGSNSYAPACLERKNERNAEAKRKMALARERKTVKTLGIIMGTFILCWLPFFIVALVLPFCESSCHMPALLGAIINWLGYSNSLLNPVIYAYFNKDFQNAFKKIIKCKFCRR
Nature of the assay: Displacement of [3H]8-OH-DPAT from 5-HT1A receptor in Sprague-Dawley rat cerebral cortex incubated for 30 mins by liquid scintillation counting analysis.

Assay [3] concerns the target D(2) dopamine receptor (Rattus norvegicus, UniProt P61169). Nature of the assay: Displacement of [3H]spiperone from dopamine D2 receptor in Sprague-Dawley rat striatum incubated for 30 mins by liquid scintillation counting analysis.

5-hydroxytryptamine receptor 2A, sequence (P14842 whole entry): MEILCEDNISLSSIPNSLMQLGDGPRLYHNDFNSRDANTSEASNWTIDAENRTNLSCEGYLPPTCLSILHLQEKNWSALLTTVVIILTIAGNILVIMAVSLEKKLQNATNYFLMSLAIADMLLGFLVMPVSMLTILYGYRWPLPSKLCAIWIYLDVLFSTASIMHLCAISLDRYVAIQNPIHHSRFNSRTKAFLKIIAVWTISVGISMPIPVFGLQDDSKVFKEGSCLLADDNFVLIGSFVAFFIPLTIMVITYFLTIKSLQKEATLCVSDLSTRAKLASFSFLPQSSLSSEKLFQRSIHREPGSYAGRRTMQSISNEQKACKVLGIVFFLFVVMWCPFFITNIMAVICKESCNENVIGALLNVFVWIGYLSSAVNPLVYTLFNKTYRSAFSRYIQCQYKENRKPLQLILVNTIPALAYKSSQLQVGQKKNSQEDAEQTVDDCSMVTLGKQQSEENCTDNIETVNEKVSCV
D(2) dopamine receptor, sequence (P61169 whole entry): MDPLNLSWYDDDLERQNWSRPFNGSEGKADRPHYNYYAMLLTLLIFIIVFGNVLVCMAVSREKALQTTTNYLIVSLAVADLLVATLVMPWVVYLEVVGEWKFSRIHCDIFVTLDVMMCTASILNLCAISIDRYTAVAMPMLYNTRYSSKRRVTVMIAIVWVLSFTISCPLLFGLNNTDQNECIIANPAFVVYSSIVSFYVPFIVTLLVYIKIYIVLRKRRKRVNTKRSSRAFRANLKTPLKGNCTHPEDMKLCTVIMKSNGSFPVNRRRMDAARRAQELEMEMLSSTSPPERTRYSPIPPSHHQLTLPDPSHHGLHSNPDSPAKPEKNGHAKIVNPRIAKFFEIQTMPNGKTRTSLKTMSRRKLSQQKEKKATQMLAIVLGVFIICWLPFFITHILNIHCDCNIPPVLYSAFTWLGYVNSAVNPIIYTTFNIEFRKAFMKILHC

As to `O=c1ccc(OCCCN2CCN(c3nsc4ccccc34)CC2)nn1-c1ccc(Cl)c(Cl)c1`, the Ki in assay [1] stood at 75.1 nM; in assay [2], 898 nM; in assay [3], 595 nM.
The matching figures for `O=c1ccc(OCCCN2CCC(c3noc4cc(F)ccc34)CC2)nn1-c1ccc(F)c(Cl)c1`: 12.3 nM, 89 nM and 45.3 nM.
Consider `O=c1ccc(OCCCN2CCC(c3noc4cc(F)ccc34)CC2)nn1-c1cc(F)cc(F)c1`, for which the inhibition constant (Ki) in assay [1] was found to be 2.3 nM; in assay [2] it was 38.1 nM; in assay [3] it was 35.4 nM.
The matching figures for `NC(=O)c1ccc2occ(N3CCN(CCCOc4ccc(=O)n(-c5ccc(Cl)c(Cl)c5)n4)CC3)c2c1`: 605 nM, 64.8 nM and 379 nM.
`O=c1ccc(OCCCN2CCC(c3noc4cc(F)ccc34)CC2)nn1-c1ccc(F)c(F)c1`: the Ki is 3.2 nM in assay [1], 43.5 nM in assay [2] and 38.5 nM in assay [3].
The matching figures for `O=c1ccc(OCCCN2CCC(c3c[nH]c4ccccc34)CC2)nn1-c1ccc(Cl)c(Cl)c1`: 74.5 nM, 1250 nM and 499 nM.
For `O=c1ccc(OCCCN2CCC(c3noc4cc(F)ccc34)CC2)nn1-c1ccc(F)cc1`, the results for the inhibitory constant (Ki) in assay [1], in assay [2] and in assay [3] were 25.9 nM, 52.8 nM and 10.8 nM, respectively.
The matching figures for `O=c1ccc(OCCCN2CCC(c3noc4cc(F)ccc34)CC2)nn1-c1ccc(Cl)c(Cl)c1`: 21.7 nM, 25 nM and 7.8 nM.
For `O=c1ccc(OCCCN2CCC(c3noc4cc(F)ccc34)CC2)nn1-c1cc(Cl)cc(Cl)c1` the same measures were 9.3 nM, 129 nM and 38.1 nM.
For `O=c1ccc(OCCCN2CCC(c3noc4cc(F)ccc34)CC2)nn1-c1ccc(F)cc1F` the same measures were 0.5 nM, 88.4 nM and 174 nM.
For `O=c1ccc(OCCCN2CCN(c3ccccc3F)CC2)nn1-c1ccc(Cl)c(Cl)c1`, the Ki was 69.5 nM in assay [1], 56.5 nM in assay [2] and 1200 nM in assay [3].
For `O=c1ccc(OCCCN2CCC(c3noc4cc(F)ccc34)CC2)nn1-c1ccc2ccccc2c1` the same measures were 21.3 nM, 15.9 nM and 16.2 nM.
For `O=c1c2ccccc2c(OCCCN2CCC(c3noc4cc(F)ccc34)CC2)nn1-c1ccc(Cl)c(Cl)c1` the same measures were 83.9 nM, 333 nM and 43.7 nM.
In the case of `O=c1ccc(OCCCN2CCC(c3nc4ccccc4s3)CC2)nn1-c1ccc(Cl)c(Cl)c1`, the Ki in assay [1] is 107 nM; in assay [2] it was above 10000 nM; in assay [3] it was above 10000 nM.
As to `O=c1ccc(OCCCN2CCN(c3ccccc3Cl)CC2)nn1-c1ccc(Cl)c(Cl)c1`, the Ki in assay [1] was 120 nM; in assay [2] it was 1110 nM; in assay [3], 808 nM.
For the molecule `O=c1ccc(OCCCN2CCC(c3noc4cc(F)ccc34)CC2)nn1-c1ccccc1Cl`, the Ki in assay [1] is 10.3 nM; in assay [2] it was 78 nM; in assay [3] it was 38.5 nM.
The matching figures for `O=c1ccc(OCCCN2CCC(c3noc4cc(F)ccc34)CC2)nn1-c1ccc(Cl)cc1`: 12.3 nM, 89 nM and 28.1 nM.
The matching figures for `O=c1ccc(OCCCN2CCC(c3noc4cc(F)ccc34)CC2)nn1-c1ccccc1`: 131 nM, 61.3 nM and 45.5 nM.
For `O=C(c1ccc(F)cc1)C1CCN(CCCOc2ccc(=O)n(-c3ccc(Cl)c(Cl)c3)n2)CC1`, the inhibitory constant (Ki) was found to be 13.8 nM in assay [1] and 179 nM in assay [3].
As to `COc1ccc(N2CCN(CCCOc3ccc(=O)n(-c4ccc(Cl)c(Cl)c4)n3)CC2)cc1`, the inhibitory constant (Ki) was determined as 543 nM in assay [1], 57.3 nM in assay [2] and 845 nM in assay [3].
For `O=c1c2c(c(OCCCN3CCC(c4noc5cc(F)ccc45)CC3)nn1-c1ccc(Cl)c(Cl)c1)CCCC2` the same measures were 89.6 nM, 224 nM and 41.8 nM.
The matching figures for `O=c1ccc(OCCCN2CCN(c3ccccn3)CC2)nn1-c1ccc(Cl)c(Cl)c1`: 143 nM, 157 nM and above 10000 nM.
The matching figures for `O=c1ccc(OCCCCCN2CCC(c3noc4cc(F)ccc34)CC2)nn1-c1ccc(Cl)c(Cl)c1`: 25.3 nM, 326 nM and 40.3 nM.
Regarding `O=c1ccc(OCCCN2CCN(c3ccc(F)cc3)CC2)nn1-c1ccc(Cl)c(Cl)c1`, the Ki in assay [1] came to 64.5 nM; in assay [2], 55.4 nM; in assay [3] it was 953 nM.
Take `O=c1ccc(OCCCN2CCC(c3noc4cc(F)ccc34)CC2)nn1-c1cccc(Cl)c1`: the inhibition constant (Ki) in assay [1] came out at 6 nM; in assay [2] it was 183 nM; in assay [3], 41.1 nM.
The matching figures for `O=c1ccc(OCCCN2CCN(c3csc4ccccc34)CC2)nn1-c1ccc(Cl)c(Cl)c1`: 81.2 nM, 984 nM and 648 nM.
For `O=c1ccc(OCCCCN2CCC(c3noc4cc(F)ccc34)CC2)nn1-c1ccc(Cl)c(Cl)c1` the same measures were 34.7 nM, 117 nM and 26.7 nM.
For `O=c1ccc(OCCCN2CCC(c3noc4cc(F)ccc34)CC2)nn1-c1ccc(Cl)cc1Cl` the same measures were 0.4 nM, 191 nM and 0.4 nM.
Turning to `Cc1c(OCCCN2CCC(c3noc4cc(F)ccc34)CC2)nn(-c2ccc(Cl)c(Cl)c2)c(=O)c1C`, the Ki in assay [1] turned out to be 91.3 nM; in assay [2] it was 121 nM; in assay [3] it was 38.3 nM.
The matching figures for `O=c1ccc(OCCCN2CCN(Cc3ccccc3)CC2)nn1-c1ccc(Cl)c(Cl)c1`: 595 nM, 213 nM and above 10000 nM.
Take `O=c1ccc(OCCCN2CCN(c3cccc(C(F)(F)F)c3)CC2)nn1-c1ccc(Cl)c(Cl)c1`: the Ki stood at 99.2 nM in assay [1], 103 nM in assay [2] and 916 nM in assay [3].
The matching figures for `COc1ccccc1N1CCN(CCCOc2ccc(=O)n(-c3ccc(Cl)c(Cl)c3)n2)CC1`: 242 nM, 56.2 nM and 524 nM.
The matching figures for `Cc1ccc(-n2nc(OCCCN3CCC(c4noc5cc(F)ccc45)CC3)ccc2=O)cc1`: 55.4 nM, 34.2 nM and 33.1 nM.
For `O=c1ccc(OCCCN2CCN(c3ncccn3)CC2)nn1-c1ccc(Cl)c(Cl)c1`, the Ki came to 1140 nM in assay [1], 167 nM in assay [2] and 914 nM in assay [3].
For the molecule `Cc1cccc(N2CCN(CCCOc3ccc(=O)n(-c4ccc(Cl)c(Cl)c4)n3)CC2)c1C`, the results for the Ki in assay [1], in assay [2] and in assay [3] were 81.2 nM, 5530 nM and above 10000 nM, respectively.
The matching figures for `O=c1ccc(OCCCN2CCN(c3ccccc3)CC2)nn1-c1ccc(Cl)c(Cl)c1`: 359 nM, 48.1 nM and 1320 nM.
For `O=c1ccc(OCCCN2CCN(c3cccc(Cl)c3Cl)CC2)nn1-c1ccc(Cl)c(Cl)c1` the same measures were 627 nM, 624 nM and 777 nM.

As usually defined, the Ki is the equilibrium dissociation constant of an inhibitor or competing ligand from its target.
